We go through eight compounds from patent US8492398B2, “Spiroazaindoles” (Merck Sharp & Dohme Corp., priority 2008, dated 2013).

Sequence of PHD2 (Q9GZT9 whole entry): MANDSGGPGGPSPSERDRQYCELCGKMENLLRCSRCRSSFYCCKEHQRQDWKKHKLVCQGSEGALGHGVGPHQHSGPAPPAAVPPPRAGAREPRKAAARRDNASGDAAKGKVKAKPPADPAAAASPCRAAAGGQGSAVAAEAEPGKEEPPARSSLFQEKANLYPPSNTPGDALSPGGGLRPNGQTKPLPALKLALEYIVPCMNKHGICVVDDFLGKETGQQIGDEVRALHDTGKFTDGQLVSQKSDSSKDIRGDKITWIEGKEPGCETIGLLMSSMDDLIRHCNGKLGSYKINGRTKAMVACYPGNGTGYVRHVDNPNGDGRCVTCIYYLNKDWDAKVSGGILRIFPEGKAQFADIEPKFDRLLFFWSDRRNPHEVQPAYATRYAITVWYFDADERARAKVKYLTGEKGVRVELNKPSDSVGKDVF

For the assay, the target named is PHD2 (Homo sapiens, UniProt Q9GZT9). Briefly: Assay for HIF-PHD2 catalytic activity (time-resolved fluorescence, VHL complex detection). In kind it is biochemical. Particulars: FLAG-tagged full length PHD2; 0.2 μM 2-oxoglutarate, 0.5 μM HIF-1α peptide; read-out: PHD2 Activity (PHD2 binding activity expressed as IC50). The method, then:
Assay for HIF-PHD2 Catalytic Activity
After a 30 min preincubation at room temperature, the enzymatic reactions were initiated by the addition of 4 μL of substrates (final concentrations of 0.2 μM 2-oxoglutarate and 0.5 μM HIF-1α peptide biotinyl-DLDLEMLAPYIPMDDDFQL). After 2 hr at room temperature, the reactions were terminated and signals were developed by the addition of a 25 μL quench/detection mix to a final concentration of 1 mM ortho-phenanthroline, 0.1 mM EDTA, 0.5 nM anti-(His)6 LANCE reagent (Perkin-Elmer Life Sciences), 100 nM AF647-labeled streptavidin (Invitrogen), and 2 μg/ml (His)6-VHL complex (S. Tan (2001) Protein Expr. Purif. 21, 224-234). The ratio of time resolved fluorescence signals at 665 and 620 nm was determined, and percent inhibition was calculated relative to an uninhibited control sample run in parallel.
The IC50 is the concentration needed to halve the response being measured. With `Cc1cccnc1CN1CCC2(CC1)C(=O)N(c1ccc(-c3ccccc3)cc1)c1nc(C(=O)O)ccc12` [Example 6, 1′-biphenyl-4-yl-1-[(3-methylpyridin-2-yl)methyl]-2′-oxo-1′,2′-dihydrospiro[piperidine-4,3′-pyrrolo[2,3-b]pyridine]-6′-carboxylic acid], the IC50 is no more than 5 nM.

On to `O=C(O)CN1CCC2(CC1)C(=O)N(c1ccc(-c3ccccc3)cc1)c1ncc(Br)cc12` [Example 7, (1′-biphenyl-4-yl-5′-bromo-2′-oxo-1′,2′-dihydro-1H-spiro[piperidine-4,3′-pyrrolo[2,3-b]pyridin]-1-yl)acetic acid], for which the IC50 fell in the range of 10 to 50 nM.

Consider `Cc1cccnc1CN1CCC2(CC1)C(=O)N(c1ccc(-c3ccccc3)cc1)c1nc(C#N)ccc12` [Example 3, 1′-biphenyl-4-yl-1-[(3-methylpyridin-2-yl)methyl]-2′-oxo-1′,2′-dihydrospiro[piperidine-4,3′-pyrrolo[2,3-b]pyridine]-6′-carbonitrile], for which the IC50 was no more than 5 nM.

Consider `Cc1cccnc1CN1CCC2(CC1)C(=O)N(c1ccc(-c3ccccc3)cc1)c1ncc(C#N)cc12` [Example 4, 1′-biphenyl-4-yl-1-[(3-methylpyridin-2-yl)methyl]-2′-oxo-1′,2′-dihydrospiro[piperidine-4,3′-pyrrolo[2,3-b]pyridine]-5′-carbonitrile], for which the IC50 lay in the range of 5 to 10 nM.

Turning to `O=C(O)CN1CCC2(CC1)C(=O)N(c1ccc(-c3ccccc3)cc1)c1ncc(C(=O)O)cc12` [Example 10, 1′-biphenyl-4-yl-1-(carboxymethyl)-2′-oxo-1′,2′-dihydrospiro[piperidine-4,3′-pyrrolo[2,3-b]pyridine]-5′-carboxylic acid], the IC50 is 5 to 10 nM.

With `Cc1cccnc1CN1CCC2(CC1)C(=O)N(c1ccc(-c3ccccc3)cc1)c1ncc(C(=O)O)cc12` [Example 5, 1′-biphenyl-4-yl-1-[(3-methylpyridin-2-yl)methyl]-2′-oxo-1′,2′-dihydrospiro[piperidine-4,3′-pyrrolo[2,3-b]pyridine]-5′-carboxylic acid], the IC50 was no more than 5 nM.

For the compound `N#Cc1cnc2c(c1)C1(CCN(CC(=O)O)CC1)C(=O)N2c1ccc(-c2ccccc2)cc1` [Example 8, (1′-biphenyl-4-yl-5′-cyano-2′-oxo-1′,2′-dihydro-1H-spiro[piperidine-4,3′-pyrrolo[2,3-b]pyridin]-1-yl)acetic acid], the IC50 was in the range of 10 to 50 nM.

For `O=C(O)CN1CCC2(CC1)C(=O)N(c1ccc(-c3ccccc3)cc1)c1ncccc12` [Example 9, (1′-biphenyl-4-yl-2′-oxo-1′,2′-dihydro-1H-spiro[piperidine-4,3′-pyrrolo[2,3-b]pyridin]-1-yl)acetic acid], the IC50 is 10 to 50 nM.
